The target of assay [1] is Delta-type opioid receptor (Homo sapiens, UniProt P41143). Put plainly: Counterscreen for agonists of heterodimerization of the mu 1 (OPRM1) and delta 1 (OPRD1) opioid receptors: Luminescence-based cell-based high throughput dose response assay to identify agonists of OPRD1 homodimerization. [Related pubchem assays (depositor defined):AID504326, AID504355, AID504692, AID504904, AID504905]. Type of assay: functional. Background: Counterscreens check selectivity or assay interference.

The target of assay [2] is 5-hydroxytryptamine receptor 5A (Homo sapiens, UniProt P47898). Description: Counterscreen for agonists of OPRM1-OPRD1 heterodimerization: luminescence-based cell-based high throughput dose response assay to identify agonists of 5-hydroxytryptamine (serotonin) 5A receptor (HTR5A). [Related pubchem assays (depositor defined):AID504326, AID504355, AID504692, AID504904, AID504905]. The class given is functional.

Assay [3] addresses Mu-type opioid receptor (Homo sapiens, UniProt P35372). Description: Counterscreen for agonists of heterodimerization of the mu 1 (OPRM1) and delta 1 (OPRD1) opioid receptors: Luminescence-based cell-based high throughput dose response assay to identify agonists of OPRM1 homodimerization. Type of assay: functional.
Assay [4] addresses ATP-dependent molecular chaperone HSP82 (Candida albicans (strain WO-1) (Yeast), UniProt C4YTQ8). Put plainly: steroid-induced GRE reporter decrease in yeast – S. cerevisiae, luminescence, Hsp90 inhibitor project, dose response (AID 2400).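 Also: beta-galactosidase luminescence from glucocorticoid response element reporter as proxy for Hsp90 function; inhibitor potency where signal loss means Hsp90 inhibition.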 The class given is functional, cell-based.
The target in assay [5] is T1, Serine/threonine-protein phosphatase (Candida dubliniensis (strain CD36 / CBS 7987 / NCPF 3949 / NRRLY-17841) (Yeast), UniProt B9W6M3).
T1 sequence (B9W6M3 whole entry): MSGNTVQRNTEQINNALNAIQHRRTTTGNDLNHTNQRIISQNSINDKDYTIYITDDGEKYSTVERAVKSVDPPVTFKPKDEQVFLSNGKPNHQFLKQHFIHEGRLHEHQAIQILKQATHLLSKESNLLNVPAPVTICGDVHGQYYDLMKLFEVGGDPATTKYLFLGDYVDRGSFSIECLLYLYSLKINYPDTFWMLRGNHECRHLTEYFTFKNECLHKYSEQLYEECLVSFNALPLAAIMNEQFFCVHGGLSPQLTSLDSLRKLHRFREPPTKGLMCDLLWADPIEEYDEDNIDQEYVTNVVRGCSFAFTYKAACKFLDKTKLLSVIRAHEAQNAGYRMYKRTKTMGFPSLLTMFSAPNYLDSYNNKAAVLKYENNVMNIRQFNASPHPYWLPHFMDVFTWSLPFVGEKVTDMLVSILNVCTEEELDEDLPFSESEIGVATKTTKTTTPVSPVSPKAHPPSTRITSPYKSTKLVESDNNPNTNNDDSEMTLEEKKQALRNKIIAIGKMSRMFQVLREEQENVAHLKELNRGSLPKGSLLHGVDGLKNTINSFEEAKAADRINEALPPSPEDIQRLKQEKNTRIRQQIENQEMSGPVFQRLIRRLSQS
Put plainly: blockers of CaCl2-induced CDRE-lacZ signaling – S. cerevisiae, luminescence, secondary, dose response (AID 2388).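 Also: yeast reporter cells carrying a calcineurin-responsive lacZ construct stimulated with calcium chloride; luminescent beta-galactosidase reporter signal in whole cells rather than isolated phosphatase activity; potency for inhibition where a drop in reporter signal means calcineurin blockade.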 The class given is functional, cell-based.

Assay [6] is described as follows: fluconazole-exposed Candida albicans growth modulators – fluorescence, retest, confirmation (AID 2467). Type of assay: functional, cell-based.
Assay [7] is described as follows: NIH-3T3 fibroblast cytotoxicity, dose response, cytotoxicity control, cell-based, fluorescence, Alamar Blue, secondary assay (AID 2327).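 Also: NIH-3T3 mouse fibroblasts cultured with fluconazole at 8 µg/mL.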 The class given is functional. In general terms: Alamar Blue is a resazurin reagent that responds to reducing activity.
A short description of assay [8]: Luminescence Cell-Based Dose Retest to Confirm Inhibitors of Cancer Stem Cells. [Related pubchem assays (depositor defined):AID2717, AID2721]. Type of assay: functional. Particulars: Homo sapiens.
The subject of assay [9] is Escherichia coli. Description: microbe, parasite or virus in culture.
Assay [10] has as its target T2, Microphthalmia-associated transcription factor (Homo sapiens, UniProt O75030).
T2 sequence (O75030 whole entry): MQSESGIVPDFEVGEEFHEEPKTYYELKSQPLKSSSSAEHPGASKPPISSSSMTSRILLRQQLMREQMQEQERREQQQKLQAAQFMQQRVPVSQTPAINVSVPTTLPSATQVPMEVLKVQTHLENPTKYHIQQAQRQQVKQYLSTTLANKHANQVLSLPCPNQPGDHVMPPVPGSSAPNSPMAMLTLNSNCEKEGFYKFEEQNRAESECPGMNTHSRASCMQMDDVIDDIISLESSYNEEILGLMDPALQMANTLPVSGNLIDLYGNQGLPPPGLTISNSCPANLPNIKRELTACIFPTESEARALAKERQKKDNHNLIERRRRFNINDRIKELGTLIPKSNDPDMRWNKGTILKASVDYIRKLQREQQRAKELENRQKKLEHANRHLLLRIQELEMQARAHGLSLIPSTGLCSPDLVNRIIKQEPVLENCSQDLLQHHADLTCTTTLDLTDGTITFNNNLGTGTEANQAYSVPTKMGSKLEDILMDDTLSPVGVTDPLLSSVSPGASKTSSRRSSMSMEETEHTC
Description: reducers of TRPM1 reporter luminescence, concentration series – cell-based, SK-MEL-5, cherry-picked, set 3, MITF inhibitor project, dose response (AID 493073).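 Also: SK-MEL-5 melanoma cells with luciferase driven by the MITF target TRPM1 promoter.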 The class given is functional.

For assay [11], the target named is T3, Protein RecA (Mycobacterium tuberculosis, UniProt P9WHJ3).
T3 sequence (P9WHJ3 whole entry): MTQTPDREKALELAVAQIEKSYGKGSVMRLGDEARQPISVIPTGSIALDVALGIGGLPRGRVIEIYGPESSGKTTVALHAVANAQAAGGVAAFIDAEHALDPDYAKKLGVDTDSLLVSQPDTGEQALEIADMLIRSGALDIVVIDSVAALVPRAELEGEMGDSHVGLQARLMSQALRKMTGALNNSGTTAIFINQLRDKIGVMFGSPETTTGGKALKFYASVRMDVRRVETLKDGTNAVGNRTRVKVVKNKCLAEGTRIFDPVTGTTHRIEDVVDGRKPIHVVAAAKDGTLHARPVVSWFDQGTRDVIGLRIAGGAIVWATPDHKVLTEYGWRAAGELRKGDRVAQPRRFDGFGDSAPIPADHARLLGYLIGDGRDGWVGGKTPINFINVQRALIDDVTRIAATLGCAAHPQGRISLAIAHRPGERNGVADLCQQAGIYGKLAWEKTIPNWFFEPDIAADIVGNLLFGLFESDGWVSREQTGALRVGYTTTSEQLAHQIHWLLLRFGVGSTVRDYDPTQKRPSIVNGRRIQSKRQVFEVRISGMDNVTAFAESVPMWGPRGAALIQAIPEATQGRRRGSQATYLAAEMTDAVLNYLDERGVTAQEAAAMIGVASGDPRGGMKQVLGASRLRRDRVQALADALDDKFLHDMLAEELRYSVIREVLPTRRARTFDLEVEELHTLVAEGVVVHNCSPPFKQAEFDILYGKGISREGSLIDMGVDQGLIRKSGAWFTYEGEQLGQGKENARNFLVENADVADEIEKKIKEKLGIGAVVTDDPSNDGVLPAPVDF
Put plainly: Fluorescence Cell-Free Homogeneous Dose Retest to Identify Inhibitors of RecA-Intein Splicing Activity. [Related pubchem assays (depositor defined):AID2097, AID2223, AID489010, AID492950]. Type of assay: functional.

Assay [12] concerns the target T4, Replicative DNA helicase DnaB (Mycobacterium tuberculosis, UniProt P9WMR3).
T4 sequence (P9WMR3 whole entry): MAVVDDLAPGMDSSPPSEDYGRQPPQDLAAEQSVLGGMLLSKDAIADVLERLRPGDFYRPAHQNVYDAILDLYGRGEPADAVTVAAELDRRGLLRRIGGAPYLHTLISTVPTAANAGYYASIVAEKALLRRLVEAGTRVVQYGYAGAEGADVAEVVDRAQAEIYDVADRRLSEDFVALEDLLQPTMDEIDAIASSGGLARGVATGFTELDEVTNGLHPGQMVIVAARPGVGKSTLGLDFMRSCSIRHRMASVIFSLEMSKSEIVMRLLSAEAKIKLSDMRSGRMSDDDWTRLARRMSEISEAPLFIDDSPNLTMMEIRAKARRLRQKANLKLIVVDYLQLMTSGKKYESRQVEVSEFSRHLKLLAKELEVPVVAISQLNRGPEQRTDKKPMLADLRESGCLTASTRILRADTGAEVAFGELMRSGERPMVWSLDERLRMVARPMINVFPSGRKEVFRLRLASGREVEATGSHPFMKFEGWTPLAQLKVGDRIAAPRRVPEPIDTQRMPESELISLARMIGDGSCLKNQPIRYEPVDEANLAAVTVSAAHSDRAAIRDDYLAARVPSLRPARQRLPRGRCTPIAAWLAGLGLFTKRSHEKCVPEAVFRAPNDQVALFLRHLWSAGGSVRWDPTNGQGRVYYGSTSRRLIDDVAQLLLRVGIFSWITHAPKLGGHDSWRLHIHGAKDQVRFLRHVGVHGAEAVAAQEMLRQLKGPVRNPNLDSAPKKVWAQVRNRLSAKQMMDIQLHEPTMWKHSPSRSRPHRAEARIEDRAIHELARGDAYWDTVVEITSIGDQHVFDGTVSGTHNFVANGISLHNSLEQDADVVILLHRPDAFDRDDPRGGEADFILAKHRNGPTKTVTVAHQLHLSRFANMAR
Put plainly: DnaB intein splicing inhibitors, dose response, biochemical, cell-free fluorescence (AID 449749). The class given is functional.

The target in assay [13] is T5, Apoptotic protease-activating factor 1 (Homo sapiens, UniProt O14727).
T5 sequence (O14727 whole entry): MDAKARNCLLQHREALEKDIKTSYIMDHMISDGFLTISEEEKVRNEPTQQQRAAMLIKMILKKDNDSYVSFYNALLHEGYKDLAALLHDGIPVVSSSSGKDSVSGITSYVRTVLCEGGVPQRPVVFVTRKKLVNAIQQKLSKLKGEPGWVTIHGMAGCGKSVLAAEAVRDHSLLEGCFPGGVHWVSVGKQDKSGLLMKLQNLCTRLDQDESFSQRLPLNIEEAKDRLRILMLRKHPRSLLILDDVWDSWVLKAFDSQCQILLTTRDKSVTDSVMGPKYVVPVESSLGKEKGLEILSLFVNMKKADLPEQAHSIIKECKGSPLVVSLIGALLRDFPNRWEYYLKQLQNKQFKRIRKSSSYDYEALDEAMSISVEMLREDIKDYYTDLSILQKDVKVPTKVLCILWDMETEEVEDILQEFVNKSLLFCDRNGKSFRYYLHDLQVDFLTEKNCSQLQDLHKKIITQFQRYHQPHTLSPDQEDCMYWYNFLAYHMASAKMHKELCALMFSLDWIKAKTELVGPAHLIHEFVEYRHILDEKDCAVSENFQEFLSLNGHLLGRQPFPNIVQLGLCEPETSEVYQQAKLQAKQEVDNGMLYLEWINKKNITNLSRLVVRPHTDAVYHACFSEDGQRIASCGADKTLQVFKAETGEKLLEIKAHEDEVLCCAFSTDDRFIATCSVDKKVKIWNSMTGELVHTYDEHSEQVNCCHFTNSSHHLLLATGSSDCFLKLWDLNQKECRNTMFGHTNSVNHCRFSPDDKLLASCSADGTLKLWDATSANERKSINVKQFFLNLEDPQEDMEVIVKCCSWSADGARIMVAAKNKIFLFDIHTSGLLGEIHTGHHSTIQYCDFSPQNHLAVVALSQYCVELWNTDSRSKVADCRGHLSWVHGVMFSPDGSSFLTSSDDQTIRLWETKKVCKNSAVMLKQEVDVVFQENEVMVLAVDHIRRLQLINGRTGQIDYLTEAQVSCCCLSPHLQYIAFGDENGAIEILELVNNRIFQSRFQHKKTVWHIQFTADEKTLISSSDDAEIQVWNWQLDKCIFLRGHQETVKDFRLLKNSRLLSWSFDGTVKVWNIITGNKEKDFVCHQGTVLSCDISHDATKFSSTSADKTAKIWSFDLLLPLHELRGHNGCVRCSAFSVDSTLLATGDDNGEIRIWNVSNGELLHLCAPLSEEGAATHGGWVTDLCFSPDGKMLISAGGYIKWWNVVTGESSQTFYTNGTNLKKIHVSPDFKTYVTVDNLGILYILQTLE
Type of assay: functional.

Assay [14] deals with A-375. Put plainly: MITF: Counter assay: A375 proliferation Measured in Cell-Based System Using Plate Reader - 2084-03_Inhibitor_Dose_DryPowder_Activity. [Related pubchem assays (depositor defined):AID488944]. The note with it: Homo sapiens. The class given is functional.

One may read the EC50 as the midpoint of the concentration-response curve. One may read the AC50 as the concentration giving half of the maximal activity seen. What is called IC50 is the point on the concentration scale where inhibition reaches its midpoint.

The source made the active and inactive calls.

Chain of Delta-type opioid receptor (P41143 whole entry): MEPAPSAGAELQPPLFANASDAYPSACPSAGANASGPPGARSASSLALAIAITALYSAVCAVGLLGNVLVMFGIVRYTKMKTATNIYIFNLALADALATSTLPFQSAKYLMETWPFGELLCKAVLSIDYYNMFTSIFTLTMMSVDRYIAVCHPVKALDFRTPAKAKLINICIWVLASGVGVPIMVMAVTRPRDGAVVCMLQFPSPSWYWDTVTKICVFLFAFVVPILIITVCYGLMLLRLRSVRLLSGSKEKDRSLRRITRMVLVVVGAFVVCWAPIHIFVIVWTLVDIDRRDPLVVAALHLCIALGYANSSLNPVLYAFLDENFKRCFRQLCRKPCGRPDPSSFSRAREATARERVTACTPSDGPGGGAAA
Chain of Mu-type opioid receptor (P35372 whole entry): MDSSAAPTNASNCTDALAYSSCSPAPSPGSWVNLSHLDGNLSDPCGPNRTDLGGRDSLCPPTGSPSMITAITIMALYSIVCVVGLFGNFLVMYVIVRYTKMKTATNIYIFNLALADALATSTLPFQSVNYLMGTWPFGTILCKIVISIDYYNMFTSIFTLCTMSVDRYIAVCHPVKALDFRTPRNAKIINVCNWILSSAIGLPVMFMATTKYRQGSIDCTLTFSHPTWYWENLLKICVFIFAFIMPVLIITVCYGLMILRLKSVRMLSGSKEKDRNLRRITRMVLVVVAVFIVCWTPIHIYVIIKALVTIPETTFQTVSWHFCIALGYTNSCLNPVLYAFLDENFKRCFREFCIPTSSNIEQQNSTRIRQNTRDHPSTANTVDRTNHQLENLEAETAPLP
Chain of 5-hydroxytryptamine receptor 5A (P47898 whole entry): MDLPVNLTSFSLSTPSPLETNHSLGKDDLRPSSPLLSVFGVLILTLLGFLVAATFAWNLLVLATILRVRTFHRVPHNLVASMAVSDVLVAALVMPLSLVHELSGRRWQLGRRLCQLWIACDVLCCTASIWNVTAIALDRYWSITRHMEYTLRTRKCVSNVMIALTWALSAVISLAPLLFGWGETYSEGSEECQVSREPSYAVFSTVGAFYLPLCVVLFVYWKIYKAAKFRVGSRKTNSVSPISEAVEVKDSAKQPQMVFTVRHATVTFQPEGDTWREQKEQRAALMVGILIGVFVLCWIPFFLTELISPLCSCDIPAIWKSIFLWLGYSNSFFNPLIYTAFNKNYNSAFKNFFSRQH
Chain of ATP-dependent molecular chaperone HSP82 (C4YTQ8 whole entry): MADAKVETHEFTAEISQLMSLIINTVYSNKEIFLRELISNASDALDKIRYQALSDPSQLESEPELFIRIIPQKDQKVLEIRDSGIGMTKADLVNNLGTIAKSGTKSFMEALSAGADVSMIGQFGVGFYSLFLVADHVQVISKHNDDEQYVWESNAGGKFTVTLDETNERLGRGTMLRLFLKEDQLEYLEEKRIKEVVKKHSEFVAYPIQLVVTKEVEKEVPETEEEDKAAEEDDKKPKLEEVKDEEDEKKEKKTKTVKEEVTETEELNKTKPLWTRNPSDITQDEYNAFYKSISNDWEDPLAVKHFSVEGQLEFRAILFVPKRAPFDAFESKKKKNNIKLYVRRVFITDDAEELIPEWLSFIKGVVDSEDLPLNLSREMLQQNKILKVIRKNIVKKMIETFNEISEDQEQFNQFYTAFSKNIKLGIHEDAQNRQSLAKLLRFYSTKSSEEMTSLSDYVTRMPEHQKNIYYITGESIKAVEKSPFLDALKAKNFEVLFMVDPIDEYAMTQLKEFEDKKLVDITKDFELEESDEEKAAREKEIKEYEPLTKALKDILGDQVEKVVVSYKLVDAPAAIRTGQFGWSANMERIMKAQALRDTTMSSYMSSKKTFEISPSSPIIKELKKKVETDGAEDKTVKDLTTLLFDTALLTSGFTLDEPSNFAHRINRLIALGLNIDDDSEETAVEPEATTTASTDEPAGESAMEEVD

As to `Cc1ccc2[nH]c(SC(C(=O)Nc3ccc(F)cc3)c3ccccc3)nc2c1` (stereo not drawn), the EC50 in assay [1], in assay [2] and in assay [3] was > 92.5 µM (inactive) throughout.

Take `CCCCCCSc1nnc2nc(O)cc(N)n12`: the EC50 was > 150 µM (inactive) in [4], > 180 µM (inactive) in assay [5], 0.52 µM (active) in [6] and 79.9 µM (active) in assay [7].

With `CC1(NC(=O)CC(c2ccccc2)(c2ccccc2)c2ccccc2)CCN(CCCc2ccccc2)C1=O` (stereo not drawn), the EC50 in assay [1], in assay [2] and in assay [3] was > 92.5 µM (inactive) each time. Also, the AC50 in assay [8] was 5.42 µM (active).

As for `CC1CN(S(=O)(=O)c2ccc(C(=O)Nc3ccccc3F)cc2)CC(C)O1` (stereo not drawn), the AC50 in assay [9] is 25.1 µM (active).

Turning to `CC1(C)CC(=O)C/C(=N\NC(=O)CCc2ccc(S(=O)(=O)N3CCOCC3)cc2)C1`, the half-maximal activity concentration (AC50) in assay [9] was 44.6 µM (active).

On to `CC1=C(CC(=O)c2ccccc2)C(=O)c2ccccc2C1=O`, for which the AC50 in [10] was 7.15 µM (active); in [12] it was 18.7 µM (active); in assay [14], 42.7 µM (active). Besides, in assay [11], the half-maximal effective concentration (EC50) was 3.45 µM (active). Moreover, in [13], the IC50 was 28.8 µM (active).

Values taken from ChEMBL document CHEMBL1201862, “PubChem BioAssay data set” (2004).
